Columns and labels:
[1] = tested on: Normal human epidermal melanocytes; experiment: Melanin synthesis-promoting effect in normal human melanocytes (absorbance at 475 nm of NaOH lysate); format: cell-based; details: cultured for 6 days, relative to untreated group as 100%
Protocol: Normal human epidermal melanocytes (GIBCO™, ThermoFisher Scientific, USA) were treated with fructose 1,6-bisphosphate at 0 (untreated group), 0.1, 1, 10 or 100 ppm and then cultured for 6 days. After the culturing, the cells were lysed with 1 N NaOH and absorbance was measured at 475 nm. Relative melanin production was represented with respective to the absorbance of the untreated group not treated with fructose 1,6-bisphosphate as 100%. A higher absorbance means a higher melanin content.

human hair follicles = experiment: Effect of preventing gray hair and promoting black hair in cultured human hair follicles damaged with hydrogen peroxide (Fontana-Masson staining of melanin); format: cell-based; details: 100 ppm together with 1000 μM hydrogen peroxide, cultured for 3 days, FIG. 3
Protocol: Occipital scalp tissue was obtained from a person who received hair follicle transplantation surgery due to hair loss. Hair follicle samples were isolated from the obtained occipital scalp tissue using a microscope. A total of 15 hair follicle samples were prepared for 3 groups, with 5 samples per each group. The hair follicle samples were cultured on a 24-well plate (Nunc, Wiesbaden, Germany) containing 500 μL of a culture medium, with 5 samples per well. As the culture medium, William's E medium (GIBCO, NY, USA) containing 2 mM L-glutamine (PAA, Coelbe, Germany), 10 μg/mL insulin, 10 ng/mL hydrocortisone (Sigma, St Louis, Mo.), 0.1% Fungizone (GIBCO, NY, USA), 10 μg/mL streptomycin and 100 U/mL penicillin (GIBCO, NY, USA) was used. After simultaneously treating with hydrogen peroxide and a fructose 1,6-bisphosphate trisodium salt (FBP-Na3H) at 1000 μM and 100 ppm, respectively, the samples were cultured for 3 days. For comparison, control groups were treated with 1000 μM hydrogen peroxide (H2O2) only or with neither hydrogen peroxide nor the fructose 1,6-bisphosphate trisodium salt. After the treatment, the sample was fixed with formalin, washed with water, dehydrated with alcohol and xylene, and then embedded in paraffin according to a common tissue-processing procedure. […]

Row | Structure (SMILES) | Relative melanin production (effect of promoting melanin production in melanocytes) ([1]; 0.1, 1, 10 or 100 ppm, FIG. 1 and FIG. 2) | Relative melanin production (effect of promoting melanin production in melanocytes) ([1]; 100 ppm treatment group) | Melanin production in human hair follicles (Fontana-Masson staining) (human hair follicles) | Prevention of decreased melanin production in hair bulbs due to hydrogen peroxide damage (Fontana-Masson staining) (human hair follicles; compared with H2O2 only)
1 | O=C(COP(=O)(O)O)[C@@H](O)[C@H](O)[C@H](O)COP(=O)(O)O [fructose 1,6-bisphosphate] | exhibits the effect of promoting melanin production in melanocytes | significantly high | – | –
2 | O=C(COP(=O)([O-])[O-])[C@@H](O)[C@H](O)[C@H](O)COP(=O)([O-])O.[Na+].[Na+].[Na+] [fructose 1,6-bisphosphate trisodium salt] | – | – | promoting melanin production in human hair follicles | preventing decreased melanin production in hair bulbs due to damage caused by hydrogen peroxide

— patent US12090221B2, “Composition for preventing gray hair, promoting black hair and preventing, improving or treating vitiligo or hypochromatism comprising fructose 1,6-bisphosphate or salt, solvate, stereoisomer or hydrate thereof as active ingredient” (AMOREPACIFIC CORPORATION, priority 2021, dated 2024)
